Assay results published in PMC5845353, “The selective cathepsin K inhibitor MIV-711 attenuates joint pathology in experimental animal models of osteoarthritis” (Journal of Translational Medicine, 2018).

How the values were obtained:
[1] = system: rabbits subjected to anterior cruciate ligament transection (ACLT); test: Rabbit ACLT study, µCT osteophyte volume; format: in vivo; settings: 30 and 100 µmol/kg, data not shown
Description: (§1) Starting 1 week after sham operation or ACLT, animals were dosed daily for 7 weeks by oral gavage with either MIV-711 (synthesized by Medivir and given as a suspension in 1% Methocel A4C in water) or vehicle (1% Methocel A4C in water) at a dose volume of 4 mL/kg. The four treatment groups (n = 7 in each group) were: (1) sham + vehicle; (2) ACLT + vehicle; (3) ACLT + MIV-711, 30 µmol/kg (low dose) and (4) ACLT + MIV-711, 100 µmol/kg (high dose).
Femora and tibias from all animals were subjected to µCT scanning without and with contrast reagent, to visualize bone and cartilage, respectively. Samples were scanned on a high-resolution, volumetric µCT scanner (μCT40, ScanCo Medical, Zurich, CH). The image data was acquired with the following parameters: 36 μm isotropic voxel resolution at 300 ms exposure time, 2000 views and 1 frame per view. Each sample was scanned twice, once for acquiring bone data and once for soft tissue data. […] After the segmentation process, the voxel count associated with each of the regions of interest was calculated using VHLab. […] Cartilage thickness was calculated using SCIRun (Scientific Computing and Imaging Institute, University of Utah). The distance from the bone to the outer surface of the articulating cartilage was calculated. […] Similarly, the thickness and thickness map image of the subchondral bone was calculated. […]

plasma proteins = test: Fraction bound to plasma proteins, rabbit; format: in vitro ADME
[2] = system: rabbits subjected to anterior cruciate ligament transection (ACLT); test: Rabbit ACLT study, contrast-enhanced µCT of articular cartilage; format: in vivo
From the text: The animals were acquired following review and approval by the Institutional Animal Care and Use Committee (IACUC) at Numira (Salt Lake City, UT). The protocol was also reviewed and approved by the IACUC at Ibex Preclinical Research Inc. (Logan, UT). Male, New Zealand White rabbits (n = 32) were purchased from the Western Oregon Rabbit Co. (Philomath, OR). The animals were approximately 9 months old, weighed 3.7–4.5 kg at the start of the experiment and were randomized into four treatment groups based on body weight.
Pre-operative butorphanol (0.5–1.0 mg/kg, i.m.) for analgesia and glycopyrrolate (~ 0.1 mg/kg i.m.) were administered up to 15 min prior to induction. Anesthesia was induced by a mixture of ketamine (20–40 mg/kg, i.m.) and xylazine (5–10 mg/kg, i.m.), followed by placement of an endotracheal tube. General anesthesia was maintained with isoflurane. Perioperative cefazolin (40 mg/kg, i.v.) was administered, and […] (0.2 mg/kg, i.v.) was administered to reverse the effects of xylazine after endotracheal intubation was complete. A fentanyl patch (25 µg/h) was placed on a clipped area of the skin to provide post-operative analgesia. An incision of 1.5–2.5 cm was made in the skin over the medial side of the right knee under aseptic conditions. The patella was dislocated laterally and the knee placed in full flexion. The anterior cruciate ligament (ACL) was visualized and transected with an appropriate blade. In sham animals, the ACL was visualized but not transected. The joint was irrigated with sterile saline and closed. The muscle and skin were closed with suture and/or surgical glue. Butorphanol (0.5–1 mg/kg, i.m.) was administered after extubation to provide supplemental analgesia. The animals were then individually housed in stainless steel or plastic cages.
as §1
Femora and tibias from all animals were subjected to µCT scanning without and with contrast reagent, to visualize bone and cartilage, respectively. Samples were scanned on a high-resolution, volumetric µCT scanner (μCT40, ScanCo Medical, Zurich, CH). The image data was acquired with the following parameters: 36 μm isotropic voxel resolution at 300 ms exposure time, 2000 views and 1 frame per view. Each sample was scanned twice, once for acquiring bone data and once for soft tissue data. After the bone scans, the knees were stained using hexabrix for contrast-enhanced imaging of the cartilage. The µCT-generated DICOM files were used to analyze the samples and to create volume renderings of the regions of interest (ROI). The raw data files were converted into a file format compatible with the segmentation software VHLab (Numira). VHLab was used for segmenting out the regions of interest (osteophyte, cartilage, and subchondral bone) for the femur and tibia of each sample. A region spanning 9 mm of the articulating surface of the femur and 6.5 mm of the tibia was selected for segmenting out the cartilage and subchondral bone in the anterior–posterior direction. After the segmentation process, the voxel count associated with each of the regions of interest was calculated using VHLab. The voxel count was then multiplied by the cubic voxel resolution to obtain volume measurements for the different ROI. Cartilage thickness was calculated using SCIRun (Scientific Computing and Imaging Institute, University of Utah). The distance from the bone to the outer surface of the articulating cartilage was calculated. An image was generated that translates the distances into a color map for viewing the thickness along the length of the cartilage. […]

**Q.** For `C#C[C@@H]1CN(C(=O)[C@H](CC(C)C)NC(=O)c2ccc(-c3nc(N4CCN(C)CC4)sc3F)cc2)[C@@H]2C(=O)CO[C@H]12` [MIV-711], which “effect on osteophyte volumes in femur and tibia (µCT)” value [1] is on record?
**A.** not apparently affected

**Q.** And the “fraction bound to plasma proteins” value (plasma proteins)?
**A.** 92%

**Q.** And the “Cartilage Thickness, Lateral” value ([2]; Femur, high dose 100 µmol/kg)?
**A.** 251 ± 12 µm

**Q.** And the “Cartilage Thickness, Medial” value ([2]; Femur, high dose 100 µmol/kg)?
**A.** 306 ± 12 µm

**Q.** What about the “Cartilage Thickness, Total” value ([2]; Femur, high dose 100 µmol/kg) of the same molecule?
**A.** 278 ± 11 µm

**Q.** And the “Cartilage Volume, Lateral” value ([2]; Femur, high dose 100 µmol/kg)?
**A.** 23.0 ± 1.1 mm^3

**Q.** What about the “Cartilage Volume, Medial” value ([2]; Femur, high dose 100 µmol/kg) of the same molecule?
**A.** 27.2 ± 1.6 mm^3

**Q.** What about the “Cartilage Volume, Total” value ([2]; Femur, high dose 100 µmol/kg) of the same molecule?
**A.** 50.2 ± 2.2 mm^3

**Q.** And the “Cartilage Thickness, Lateral” value ([2]; Femur, low dose 30 µmol/kg)?
**A.** 257 ± 13 µm

**Q.** What about the “Cartilage Thickness, Medial” value ([2]; Femur, low dose 30 µmol/kg) of the same molecule?
**A.** 310 ± 18 µm

**Q.** And the “Cartilage Thickness, Total” value ([2]; Femur, low dose 30 µmol/kg)?
**A.** 283 ± 15 µm

**Q.** And the “Cartilage Volume, Lateral” value ([2]; Femur, low dose 30 µmol/kg)?
**A.** 23.1 ± 1.1 mm^3

**Q.** And the “Cartilage Volume, Medial” value ([2]; Femur, low dose 30 µmol/kg)?
**A.** 27.5 ± 2.6 mm^3

**Q.** What about the “Cartilage Volume, Total” value ([2]; Femur, low dose 30 µmol/kg) of the same molecule?
**A.** 50.6 ± 3.5 mm^3

**Q.** And the “Cartilage Thickness, Lateral” value ([2]; Tibia, high dose 100 µmol/kg)?
**A.** 369 ± 24 µm

**Q.** And the “Cartilage Thickness, Medial” value ([2]; Tibia, high dose 100 µmol/kg)?
**A.** 539 ± 25 µm

**Q.** And the “Cartilage Thickness, Total” value ([2]; Tibia, high dose 100 µmol/kg)?
**A.** 445 ± 22 µm

**Q.** And the “Cartilage Volume, Lateral” value ([2]; Tibia, high dose 100 µmol/kg)?
**A.** 21.6 ± 2.0 mm^3

**Q.** And the “Cartilage Volume, Medial” value ([2]; Tibia, high dose 100 µmol/kg)?
**A.** 25.3 ± 1.2 mm^3

**Q.** And the “Cartilage Volume, Total” value ([2]; Tibia, high dose 100 µmol/kg)?
**A.** 46.9 ± 3.1 mm^3

**Q.** And the “Cartilage Thickness, Lateral” value ([2]; Tibia, low dose 30 µmol/kg)?
**A.** 349 ± 18 µm

**Q.** And the “Cartilage Thickness, Medial” value ([2]; Tibia, low dose 30 µmol/kg)?
**A.** 533 ± 26 µm

**Q.** And the “Cartilage Thickness, Total” value ([2]; Tibia, low dose 30 µmol/kg)?
**A.** 432 ± 20 µm

**Q.** What about the “Cartilage Volume, Lateral” value ([2]; Tibia, low dose 30 µmol/kg) of the same molecule?
**A.** 19.6 ± 1.3 mm^3

**Q.** What about the “Cartilage Volume, Medial” value ([2]; Tibia, low dose 30 µmol/kg) of the same molecule?
**A.** 24.9 ± 1.5 mm^3

**Q.** What about the “Cartilage Volume, Total” value ([2]; Tibia, low dose 30 µmol/kg) of the same molecule?
**A.** 44.5 ± 2.6 mm^3
